Data taken from US20060233705A1, “Diagnosis by determination of hyperactivity or increased expression of members of cell signaling pathways” (priority 2005, published 2006).

Key:
[1] = tested on: human pulmonary adenocarcinoma cells; settings: in vitro; by increasing the release of arachidonic acid; cited from earlier work
lung tumors = settings: 2.5 mg/100 g s.c. three times weekly for 20 weeks; within 52 weeks after start of injections; cited from earlier work
[2] = tested on: members of the MAPK and GPCR pathways; assay: ELISA of venous blood for MAPK and GPCR pathway members in NNK-treated hamsters; format: in vivo, Syrian Golden Hamsters; settings: blood one week after NNK 2.5 mg/100 g s.c. three times weekly for 10 weeks
Experimental: Syrian Golden Hamsters are injected subcutaneously with the tobacco-specific carcinogenic nitrosamine 4-(methylnitrosamino)-1-(3-pyridyl)-1-butanone (NNK) at a dosage of 2.5 mg/100 g bodyweight three times weekly for 10 weeks. […] Control hamsters are untreated. One week after the final NNK injection, approximately 250 microliters of venous blood is collected from the hamsters.
Antibodies that bind to phosphorylated or unphosphorylated members of the MAPK and GPCR pathways, including Raf, Ras, MEK, ERK, adenylate cyclase, cAMP, PKA, CREB, and PKC are purchased from commercial sources, including EMD Biosciences (San Diego, Calif.) (Raf, ERK), BD Biosciences Pharmingen (San Diego, Calif.) (Raf), Cell Signaling Technology (Beverly, Mass.) (Ras), Abgent (San Diego, Calif.) ([…]), GenWay Biotech Inc. (San Diego, Calif.) (adenylate cyclase), Abcam, Inc. (Cambridge, Mass.) (cAMP, PKA, PKC, Raf), and Upstate (Charlottesville, Va.) (CREB).
Paired antibodies for each of the above member of the MAPK and GPCR pathways are utilized as coating antibody and detection antibody in formulating an ELISA (Enzyme-Linked Immunosorbent Assay) for each of the members. […]
Briefly, a first antibody that binds to a member of the MAPK or GPCR pathway is bound to the wells on a microtiter plate. […] Then a stop solution is added to the wells and the color intensity of each well is measured using an ELISA plate reader.

[3] = tested on: pulmonary adenocarcinomas; settings: animal model; cited from earlier work

SMILES | proliferation of human pulmonary adenocarcinoma cells [1] | lung tumors developed (lung tumors) | ELISA color intensity versus control hamsters [2] | induction of pulmonary adenocarcinomas [3]
CN(CCCC(=O)c1cccnc1)N=O [NNK, 4-(methylnitrosamino)-1-(3-pyridyl)-1-butanone] | stimulate the proliferation | about 10 lung tumors/hamster | significantly higher | reproducibly induced pulmonary adenocarcinomas
CC(C)NCC(O)c1ccc(O)c(O)c1 (centres unmarked) [isoproterenol] | stimulate the proliferation | – | – | –
